One assay deals with Nucleic Acid. As to the kind of experiment: Concentrations of compound at which 50% Form I DNA was converted into Form II DNA of Phi X 174. In kind it is functional.
Assay [1] relates to HeLa. Nature of the assay: Cytotoxicity of compound against HeLa S3 cells without photoirradiation. In kind it is functional, cell-based. Conditions: Homo sapiens, light or radiation study.
In assay [2] the test system is HeLa. As to the kind of experiment: Cytotoxicity of compound against HeLa S3 cells exposed to compound for 72 hr with 1 hr photoirradiation. Conditions: Homo sapiens, light or radiation study.

As to `CC1O[C@H](OC2C(O)C[C@@H](OCCOC(=O)c3cnc4ccccc4n3)OC2C)CC(N)C1O` (some centres undefined), the CC50 with Nucleic Acid turned out to be 160 µM.

With `CC1O[C@H](OC2C(O)C[C@H](OCCOC(=O)c3cnc4ccccc4n3)OC2C)CC(N)C1O` (some centres undefined), the CC50 in the assay on Nucleic Acid was 43 µM. Also, the values for the IC50 with HeLa [1] and in the assay on HeLa [2] were > 100 µM and 6 µM, respectively.
